Structures can show the parent of a compound that is named as a salt.
Compound | melting point
Cc1ccc(C(NC(=O)Cc2cnc(N3CCOCC3)nc2)c2ccc(C)o2)c(N2CCCCC2)c1 (stereo not shown) (as salt: HCl) [Cpd. 26, N-{[4-methyl-2-(piperidin-1-yl)phenyl](5-methylfuran-2-yl)methyl}-2-[2-(morpholin-4-yl)pyrimidin-5-yl]acetamide] | 69 °C
Cc1ccc(C(NC(=O)C2(c3ccc(N4CCS(=O)(=O)CC4)cc3)CC2)c2ccc(C)o2)c(N2CCCCC2)c1 (stereo not shown) (as salt: HCl) [Cpd. 32, 1-[4-(1,1-dioxo-1-thiomorpholin-4-yl)phenyl]-N-{[4-methyl-2-(piperidin-1-yl)phenyl](5-methylfuran-2-yl)methyl}cyclopropane-1-carboxamide] | 98 °C
Cc1ccc(C(NC(=O)Cc2ccc(O)c(N3CCS(=O)(=O)CC3)c2)c2ccc(C)o2)c(N2CCCCC2)c1 (stereo not shown) (as salt: HCl) [Cpd. 39, 2-[3-(1,1-dioxo-1-thiomorpholin-4-yl)-4-hydroxyphenyl]-N-{[4-methyl-2-(piperidin-1-yl)phenyl](5-methylfuran-2-yl)methyl}acetamide] | 118 °C
Cc1ccc(C(NC(=O)Cc2ccc(N3CCS(=O)(=O)CC3)cc2)c2ccc(C)o2)c(C(F)(F)F)c1 (stereo not shown) (as salt: HCl) [Cpd. 24, 2-[4-(1,1-dioxo-1-thiomorpholin-4-yl)phenyl]-N-{[4-methyl-2-(trifluoromethyl)phenyl](5-methylfuran-2-yl)methyl}acetamide] | 90 °C
Cc1ccc(C(NC(=O)C2(c3ccc(N4CCS(=O)(=O)CC4)cc3)CC2)c2ccc(C)o2)c(C)c1 (stereo not shown) (as salt: HCl) [Cpd. 31, N-[(2,4-dimethylphenyl)(5-methylfuran-2-yl)methyl]-1-[4-(1,1-dioxo-1-thiomorpholin-4-yl)phenyl]cyclopropane-1-carboxamide] | 75 °C
Cc1ccc(C(NC(=O)Cc2cc(N3CCOCC3)ccc2F)c2ccccc2)c(N2CCCCC2)c1 (stereo not shown) (as salt: HCl) [Cpd. 8, 2-[2-fluoro-5-(morpholin-4-yl)phenyl]-N-{[4-methyl-2-(piperidin-1-yl)phenyl](phenyl)methyl}acetamide] | 82 °C
O=C(Cc1ccc(N2CCS(=O)(=O)CC2)cc1)NC(c1ccccc1)c1ccccc1N1CCCCC1 (stereo not shown) (as salt: HCl) [Cpd. 1, 2-[4-(1,1-dioxo-1-thiomorpholin-4-yl)phenyl]-N-{phenyl[2-(piperidin-1-yl)phenyl]methyl}acetamide] | 202 °C
Cc1ccc(C(NC(=O)Cc2ccc(N3CCS(=O)(=O)CC3)c(C)c2)c2ccc(C)o2)c(C(F)(F)F)c1 (stereo not shown) (as salt: HCl) [Cpd. 10, 2-[4-(1,1-dioxo-1-thiomorpholin-4-yl)-3-methylphenyl]-N-{[4-methyl-2-(trifluoromethyl)phenyl](5-methylfuran-2-yl)methyl}acetamide] | 99 °C
COc1ccc(C(NC(=O)Cc2ccc(N3CCS(=O)(=O)CC3)c(C)c2)c2ccc(C)o2)c(N2CCC(C(F)(F)F)CC2)c1 (stereo not shown) (as salt: HCl) [Cpd. 14, 2-[4-(1,1-dioxo-1-thiomorpholin-4-yl)-3-methylphenyl]-N-({4-methoxy-2-[4-(trifluoromethyl)piperidin-1-yl]phenyl}(5-methylfuran-2-yl)methyl)acetamide] | 106 °C
Cc1ccc(C(NC(=O)Cc2cnc(N3CCS(=O)(=O)CC3)nc2C)c2ccc(C)o2)c(N2CCCCC2)c1 (stereo not shown) (as salt: HCl) [Cpd. 38, 2-[2-(1,1-dioxo-1-thiomorpholin-4-yl)-4-methylpyrimidin-5-yl]-N-{[4-methyl-2-(piperidin-1-yl)phenyl](5-methylfuran-2-yl)methyl}acetamide] | 99 °C
Cc1ccc(C(NC(=O)Cc2cc(N3CCS(=O)(=O)CC3)ccc2F)c2ccccc2)c(N2CCOCC2)c1 (stereo not shown) (as salt: HCl) [Cpd. 4, 2-[5-(1,1-dioxo-1-thiomorpholin-4-yl)-2-fluorophenyl]-N-{[4-methyl-2-(morpholin-4-yl)phenyl](phenyl)methyl}acetamide] | 207 °C
Cc1ccc(C(NC(=O)Cc2cnc(N3CCS(=O)(=O)CC3)nc2)c2ccc(C)o2)c(N2CC3CC3C2)c1 (stereo not shown) (as salt: HCl) [Cpd. 36, N-[(2-{3-azabicyclo[3.1.0]hexan-3-yl}-4-methylphenyl)(5-methylfuran-2-yl)methyl]-2-[2-(1,1-dioxo-1-thiomorpholin-4-yl)pyrimidin-5-yl]acetamide] | 105 °C
COc1ccc(C(NC(=O)Cc2cnc(N3CCS(=O)(=O)CC3)nc2)c2ccc(C)o2)c(N2CCCCCC2)c1 (stereo not shown) (as salt: HCl) [Cpd. 45, N-{[2-(azepan-1-yl)-4-methoxyphenyl](5-methylfuran-2-yl)methyl}-2-[2-(1,1-dioxo-1-thiomorpholin-4-yl)pyrimidin-5-yl]acetamide] | 106 °C
Cc1ccc(C(NC(=O)Cc2ccc(N3CCS(=O)(=O)CC3)c(C)c2)c2ccc(C)o2)c(N2CCCCC2)c1 (stereo not shown) (as salt: HCl) [Cpd. 12, 2-[4-(1,1-dioxo-1-thiomorpholin-4-yl)-3-methylphenyl]-N-{[4-methyl-2-(piperidin-1-yl)phenyl](5-methylfuran-2-yl)methyl}acetamide] | 97 °C
Cc1ccc(C(NC(=O)Cc2cnc(N3CCS(=O)(=O)CC3)nc2)c2ccc(C)o2)c(N2CCCCC2)c1 (stereo not shown) (as salt: HCl) [Cpd. 20, 2-[2-(1,1-dioxo-1-thiomorpholin-4-yl)pyrimidin-5-yl]-N-{[4-methyl-2-(piperidin-1-yl)phenyl](5-methylfuran-2-yl)methyl}acetamide] | 91 °C
COc1ccc(C(NC(=O)Cc2ccc(N3CCS(=O)(=O)CC3)c(C)c2)c2ccc(C)o2)c(N2CCC(C)CC2)c1 (stereo not shown) (as salt: HCl) [Cpd. 13, 2-[4-(1,1-dioxo-1-thiomorpholin-4-yl)-3-methylphenyl]-N-{[4-methoxy-2-(4-methylpiperidin-1-yl)phenyl](5-methylfuran-2-yl)methyl}acetamide] | 101 °C
Cc1ccc(C(NC(=O)Cc2ccc(N3CCOCC3)nc2)c2ccc(C)o2)c(N2CCCCC2)c1 (stereo not shown) (as salt: HCl) [Cpd. 25, N-{[4-methyl-2-(piperidin-1-yl)phenyl](5-methylfuran-2-yl)methyl}-2-[6-(morpholin-4-yl)pyridin-3-yl]acetamide] | 61 °C
Cc1ccc(C(NC(=O)Cc2ccc(N3CCS(=O)(=O)CC3)c(C)c2)c2ccc(C)o2)c(Br)c1 (stereo not shown) (as salt: HCl) [Cpd. 11, N-[(2-bromo-4-methylphenyl)(5-methylfuran-2-yl)methyl]-2-[4-(1,1-dioxo-1-thiomorpholin-4-yl)-3-methylphenyl]acetamide] | 110 °C

Results, then the compound that gave them:

melting point | Compound
72 °C | Cc1ccc(C(NC(=O)C2(c3cccc(N4CCS(=O)(=O)CC4)c3)CC2)c2ccc(C)o2)c(C)c1 (stereo not shown) (as salt: HCl) [Cpd. 68, N-[(2,4-dimethylphenyl)(5-methylfuran-2-yl)methyl]-1-[3-(1,1-dioxo-1-thiomorpholin-4-yl)phenyl]cyclopropane-1-carboxamide]
90 °C | COc1ccc(C(NC(=O)C2(c3ccc(N4CCS(=O)(=O)CC4)cc3)CC2)c2ccc(C)o2)c(N2CCCCCC2)c1 (stereo not shown) (as salt: HCl) [Cpd. 46, N-{[2-(azepan-1-yl)-4-methoxyphenyl](5-methylfuran-2-yl)methyl}-1-[4-(1,1-dioxo-1-thiomorpholin-4-yl)phenyl]cyclopropane-1-carboxamide]
101 °C | COc1ccc(C(NC(=O)C2(c3cnc(N4CCS(=O)(=O)CC4)nc3)CC2)c2ccc(C)o2)c(C)c1 (stereo not shown) (as salt: HCl) [Cpd. 57, 1-[2-(1,1-dioxo-1-thiomorpholin-4-yl)pyrimidin-5-yl]-N-[(4-methoxy-2-methylphenyl)(5-methylfuran-2-yl)methyl]cyclopropane-1-carboxamide]
86 °C | Cc1ccc(C(NC(=O)C2(c3cc(N4CCS(=O)(=O)CC4)ccc3C)CC2)c2ccc(C)o2)c(C)c1 (stereo not shown) (as salt: HCl) [Cpd. 70, N-[(2,4-dimethylphenyl)(5-methylfuran-2-yl)methyl]-1-[5-(1,1-dioxo-1-thiomorpholin-4-yl)-2-methylphenyl]cyclopropane-1-carboxamide]
99 °C | Cc1ccc(C(NC(=O)Cc2ncc(N3CCS(=O)(=O)CC3)cn2)c2ccc(C)o2)c(N2CCCCC2)c1 (stereo not shown) (as salt: HCl) [Cpd. 65, 2-[5-(1,1-dioxo-1-thiomorpholin-4-yl)pyrimidin-2-yl]-N-{[4-methyl-2-(piperidin-1-yl)phenyl](5-methylfuran-2-yl)methyl}acetamide]
87 °C | Cc1ccc(C(NC(=O)C2(c3ccc(N4CCS(=O)(=O)CC4)cc3)CCC2)c2ccc(C)o2)c(N2CCCCC2)c1 (stereo not shown) (as salt: HCl) [Cpd. 55, 1-[4-(1,1-dioxo-1-thiomorpholin-4-yl)phenyl]-N-{[4-methyl-2-(piperidin-1-yl)phenyl](5-methylfuran-2-yl)methyl}cyclobutane-1-carboxamide]
145 °C | Cc1ccc(C(NC(=O)C2(c3cnc(N4CCS(=O)(=O)CC4)nc3)CC2)c2ccc(Cl)cc2Cl)o1 (stereo not shown) (as salt: HCl) [Cpd. 54, N-[(2,4-dichlorophenyl)(5-methylfuran-2-yl)methyl]-1-[2-(1,1-dioxo-1-thiomorpholin-4-yl)pyrimidin-5-yl]cyclopropane-1-carboxamide]
98 °C | Cc1ccc(C(NC(=O)C2(c3cnc(N4CCS(=O)(=O)CC4)nc3)CC2)c2ccc(C)o2)c(Cl)c1 (stereo not shown) (as salt: HCl) [Cpd. 52, N-[(2-chloro-4-methylphenyl)(5-methylfuran-2-yl)methyl]-1-[2-(1,1-dioxo-1-thiomorpholin-4-yl)pyrimidin-5-yl]cyclopropane-1-carboxamide]
71 °C | Cc1ccc(C(NC(=O)C2(c3ccc(N4CCS(=O)(=O)CC4)cn3)CC2)c2ccc(C)o2)c(C)c1 (stereo not shown) (as salt: HCl) [Cpd. 73, N-[(2,4-dimethylphenyl)(5-methylfuran-2-yl)methyl]-1-[5-(1,1-dioxo-1-thiomorpholin-4-yl)pyridin-2-yl]cyclopropane-1-carboxamide]
162 °C | Cc1ccc(C(NC(=O)C2(c3cnc(N4CCS(=O)(=O)CC4)nc3)CC2)c2ccc(Cl)cc2C)o1 (stereo not shown) (as salt: HCl) [Cpd. 53, N-[(4-chloro-2-methylphenyl)(5-methylfuran-2-yl)methyl]-1-[2-(1,1-dioxo-1-thiomorpholin-4-yl)pyrimidin-5-yl]cyclopropane-1-carboxamide]

From US11077115B2, “Rorgamma modulators and uses thereof” (Genfit, priority 2017, dated 2021)
